PubChem BioAssay AID1963449 (Molecular Pharmacology Branch, DTP, NCI, 2024)
pIC50: −log10 of the molar value. Several values for one entry are separate records, joined by “and”; a condition that tells them apart may be missing. Identical values can stand only once.

System: 596521-263-R-J1-PDC complex spheroid growth
Assay: Anticancer human tumor 596521-263-R-J1-PDC patient-derived soft tissue sarcoma cell line growth inhibition [Asc]
Details: for viability, T/C: stronger effect = lower value
Summary of the method: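 Stromal components (HUVEC and hMSC) are co-assembled with the cancer cells into multicellular spheroids. Drugs are then added singly or paired, at concentrations falling by half-log increments from a clinically achievable maximum, capped at 10 microM without known Cmax.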

[1] = curve of first compound, second compound 0.0316 µM
[2] = curve of first compound, second compound 0.1 µM
[3] = curve of first compound, second compound 0.316 µM
[4] = curve of first compound, second compound 1 µM
[5] = curve of first compound, second compound 3.16 µM
[6] = curve of first compound, second compound 10 µM
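Note: spheroids exposed to compounds for 7 days.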

CCN1C(C(=O)NC23CCC(C(=O)O)(CC2)CC3)C(c2cccc(Cl)c2F)C2(C(=O)Nc3cc(Cl)ccc32)C12CCCCC2 (stereo unspecified) + Cc1c(S(C)(=O)=O)c(-c2cc(F)cc(N3CCN(c4ccc(NS(=O)(=O)c5ccc(NC(CCN6CCC(C(=O)OCCCP(=O)(O)O)CC6)CSc6ccccc6)c(S(=O)(=O)C(F)(F)F)c5)cc4)CC3)c2)c(-c2ccc(Cl)cc2)n1C(C)C
pIC50 [1]: < 5.52
pIC50 [2]: < 5.52
pIC50 [3]: < 5.52
pIC50 [4]: 5.62
pIC50 [5]: 6.34
pIC50 [6]: 6.88
viability, T/C (second compound 0.0316 µM, first compound 0.00949 µM): 94.6%
viability, T/C (second compound 0.0316 µM, first compound 0.03 µM): 97.5%
viability, T/C (second compound 0.0316 µM, first compound 0.0949 µM): 94.3%
viability, T/C (second compound 0.0316 µM, first compound 0.3 µM): 90.8%
viability, T/C (second compound 0.0316 µM, first compound 0.949 µM): 87.5%
viability, T/C (second compound 0.0316 µM, first compound 3 µM): 80.7%
viability, T/C (second compound 0.1 µM, first compound 0.00949 µM): 89.5%
viability, T/C (second compound 0.1 µM, first compound 0.03 µM): 94.8%
viability, T/C (second compound 0.1 µM, first compound 0.0949 µM): 95.9%
viability, T/C (second compound 0.1 µM, first compound 0.3 µM): 112%
viability, T/C (second compound 0.1 µM, first compound 0.949 µM): 87.7%
viability, T/C (second compound 0.1 µM, first compound 3 µM): 73.4%
viability, T/C (second compound 0.316 µM, first compound 0.00949 µM): 98.7%
viability, T/C (second compound 0.316 µM, first compound 0.03 µM): 92.4%
viability, T/C (second compound 0.316 µM, first compound 0.0949 µM): 84.7%
viability, T/C (second compound 0.316 µM, first compound 0.3 µM): 97.1%
viability, T/C (second compound 0.316 µM, first compound 0.949 µM): 83%
viability, T/C (second compound 0.316 µM, first compound 3 µM): 54.1%
viability, T/C (second compound 1 µM, first compound 0.00949 µM): 88.6%
viability, T/C (second compound 1 µM, first compound 0.03 µM): 76%
viability, T/C (second compound 1 µM, first compound 0.0949 µM): 67.2%
viability, T/C (second compound 1 µM, first compound 0.3 µM): 83.1%
viability, T/C (second compound 1 µM, first compound 0.949 µM): 62.7%
viability, T/C (second compound 1 µM, first compound 3 µM): 46.1%
viability, T/C (second compound 3.16 µM, first compound 0.00949 µM): 64.5%
viability, T/C (second compound 3.16 µM, first compound 0.03 µM): 71%
viability, T/C (second compound 3.16 µM, first compound 0.0949 µM): 54.8%
viability, T/C (second compound 3.16 µM, first compound 0.3 µM): 57.1%
viability, T/C (second compound 3.16 µM, first compound 0.949 µM): 42.2%
viability, T/C (second compound 3.16 µM, first compound 3 µM): 24.2%
viability, T/C (second compound 10 µM, first compound 0.00949 µM): 50.8%
viability, T/C (second compound 10 µM, first compound 0.03 µM): 53%
viability, T/C (second compound 10 µM, first compound 0.0949 µM): 51.7%
viability, T/C (second compound 10 µM, first compound 0.3 µM): 46.8%
viability, T/C (second compound 10 µM, first compound 0.949 µM): 33.8%
viability, T/C (second compound 10 µM, first compound 3 µM): 18.8%

Cn1ncnc1[C@H]1c2n[nH]c(=O)c3cc(F)cc(c23)N[C@@H]1c1ccc(F)cc1
viability, T/C (compound 0.000316 µM): 95.5% and 111% and 105%
viability, T/C (compound 0.001 µM): 101% and 97% and 98.5%
viability, T/C (compound 0.00316 µM): 97.5% and 93.9% and 87.1%
viability, T/C (compound 0.01 µM): 87.1% and 98% and 103%
viability, T/C (compound 0.0316 µM): 105% and 96.6% and 94.3%
viability, T/C (compound 0.1 µM): 79.6% and 84.5% and 82.6%
pIC50 (curve of compound): < 7.00

O=C(c1ccc(F)c(F)c1Nc1ccc(I)cc1F)N1CC(O)([C@@H]2CCCCN2)C1 + Cc1c(S(C)(=O)=O)c(-c2cc(F)cc(N3CCN(c4ccc(NS(=O)(=O)c5ccc(NC(CCN6CCC(C(=O)OCCCP(=O)(O)O)CC6)CSc6ccccc6)c(S(=O)(=O)C(F)(F)F)c5)cc4)CC3)c2)c(-c2ccc(Cl)cc2)n1C(C)C
pIC50 [1]: 6.46
pIC50 [2]: 6.63
pIC50 [3]: 6.68
pIC50 [4]: 6.76
pIC50 [5]: 6.91
pIC50 [6]: 7.26
viability, T/C (second compound 0.0316 µM, first compound 0.00316 µM): 96%
viability, T/C (second compound 0.0316 µM, first compound 0.01 µM): 93%
viability, T/C (second compound 0.0316 µM, first compound 0.0316 µM): 93.3%
viability, T/C (second compound 0.0316 µM, first compound 0.1 µM): 74.9%
viability, T/C (second compound 0.0316 µM, first compound 0.316 µM): 52.7%
viability, T/C (second compound 0.0316 µM, first compound 1 µM): 30.2%
viability, T/C (second compound 0.1 µM, first compound 0.00316 µM): 101%
viability, T/C (second compound 0.1 µM, first compound 0.01 µM): 102%
viability, T/C (second compound 0.1 µM, first compound 0.0316 µM): 103%
viability, T/C (second compound 0.1 µM, first compound 0.1 µM): 70.2%
viability, T/C (second compound 0.1 µM, first compound 0.316 µM): 45.5%
viability, T/C (second compound 0.1 µM, first compound 1 µM): 29.9%
viability, T/C (second compound 0.316 µM, first compound 0.00316 µM): 87.1%
viability, T/C (second compound 0.316 µM, first compound 0.01 µM): 84%
viability, T/C (second compound 0.316 µM, first compound 0.0316 µM): 87.1%
viability, T/C (second compound 0.316 µM, first compound 0.1 µM): 71.1%
viability, T/C (second compound 0.316 µM, first compound 0.316 µM): 38.1%
viability, T/C (second compound 0.316 µM, first compound 1 µM): 22.9%
viability, T/C (second compound 1 µM, first compound 0.00316 µM): 83.3%
viability, T/C (second compound 1 µM, first compound 0.01 µM): 70.9%
viability, T/C (second compound 1 µM, first compound 0.0316 µM): 84.8%
viability, T/C (second compound 1 µM, first compound 0.1 µM): 66.3%
viability, T/C (second compound 1 µM, first compound 0.316 µM): 31.4%
viability, T/C (second compound 1 µM, first compound 1 µM): 21.8%
viability, T/C (second compound 3.16 µM, first compound 0.00316 µM): 62.8%
viability, T/C (second compound 3.16 µM, first compound 0.01 µM): 71.4%
viability, T/C (second compound 3.16 µM, first compound 0.0316 µM): 62.2%
viability, T/C (second compound 3.16 µM, first compound 0.1 µM): 55.8%
viability, T/C (second compound 3.16 µM, first compound 0.316 µM): 26.7%
viability, T/C (second compound 3.16 µM, first compound 1 µM): 16.8%
viability, T/C (second compound 10 µM, first compound 0.00316 µM): 54.1%
viability, T/C (second compound 10 µM, first compound 0.01 µM): 57.4%
viability, T/C (second compound 10 µM, first compound 0.0316 µM): 55%
viability, T/C (second compound 10 µM, first compound 0.1 µM): 45%
viability, T/C (second compound 10 µM, first compound 0.316 µM): 26.8%
viability, T/C (second compound 10 µM, first compound 1 µM): 18.6%
